{
  "source": "patent US20240360082A1",
  "about": "“SUBSTITUTED PYRIDONE COMPOUNDS USEFUL TO TREAT ORTH[…]” (priority 2021, published 2024)",
  "target": "influenza A virus minigenome (PB2, PB1, PA, NP proteins) (UniProt P04665)",
  "sequence (P04665 whole entry)": "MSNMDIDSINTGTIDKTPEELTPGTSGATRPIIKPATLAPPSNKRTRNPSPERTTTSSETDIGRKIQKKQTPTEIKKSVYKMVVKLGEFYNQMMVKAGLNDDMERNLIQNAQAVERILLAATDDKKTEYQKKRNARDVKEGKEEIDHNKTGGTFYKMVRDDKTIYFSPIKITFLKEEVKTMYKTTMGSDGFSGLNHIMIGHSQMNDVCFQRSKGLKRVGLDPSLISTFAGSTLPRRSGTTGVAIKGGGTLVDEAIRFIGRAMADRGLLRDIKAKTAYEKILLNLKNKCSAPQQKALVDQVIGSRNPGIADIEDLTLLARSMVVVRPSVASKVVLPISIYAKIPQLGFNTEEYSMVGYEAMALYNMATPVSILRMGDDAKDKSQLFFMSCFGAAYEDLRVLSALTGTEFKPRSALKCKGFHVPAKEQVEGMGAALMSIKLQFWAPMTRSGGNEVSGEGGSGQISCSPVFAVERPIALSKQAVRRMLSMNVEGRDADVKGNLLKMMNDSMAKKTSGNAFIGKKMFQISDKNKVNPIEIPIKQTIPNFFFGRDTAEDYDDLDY",
  "format": "cell-based",
  "note": "Like-named read-outs stand apart in the source and are kept apart here.",
  "data": [
    {"smiles": "NC(=O)c1cc(-c2ccc(OCC3COCC(F)(F)C3)cc2)c(C(F)(F)F)[nH]c1=O", "note": "(single isomer, unassigned) [Example 336, 5-(4-((5,5-difluorotetrahydro-2H-pyran-3-yl)methoxy)phenyl)-2-oxo-6-(trifluoromethyl)-1,2-dihydropyridine-3-carboxamide]", "values": [
      {"measurement": "IC50", "setting": "read-out: RNP_ Hubei B IC50", "value": "5 to 10", "unit": "µM"}
    ]},
    {"smiles": "NC(=O)c1cc(-c2ccc(OCC3COCC(F)(F)C3)cc2)c(C(F)(F)F)[nH]c1=O", "note": "(single isomer, unassigned) [Example 337, 5-(4-((5,5-difluorotetrahydro-2H-pyran-3-yl)methoxy)phenyl)-2-oxo-6-(trifluoromethyl)-1,2-dihydropyridine-3-carboxamide]", "values": [
      {"measurement": "IC50", "setting": "read-out: RNP_ Hubei B IC50", "value": "5 to 10", "unit": "µM"}
    ]},
    {"smiles": "NC(=O)c1cc(-c2ccc(OCC3COC(CF)CO3)cc2)c(C(F)(F)F)[nH]c1=O", "note": "(single isomer, unassigned) [Example 340, 5-(4-((5-(fluoromethyl)-1,4-dioxan-2-yl)methoxy)phenyl)-2-oxo-6-(trifluoromethyl)-1,2-dihydropyridine-3-carboxamide]", "values": [
      {"measurement": "IC50", "setting": "read-out: RNP_ Hubei B IC50", "value": "5 to 10", "unit": "µM"}
    ]},
    {"smiles": "NC(=O)c1cc(-c2ccc(OCC3COC(CF)CO3)cc2)c(C(F)(F)F)[nH]c1=O", "note": "(single isomer, unassigned) [Example 341, 5-(4-((5-(fluoromethyl)-1,4-dioxan-2-yl)methoxy)phenyl)-2-oxo-6-(trifluoromethyl)-1,2-dihydropyridine-3-carboxamide]", "values": [
      {"measurement": "IC50", "setting": "read-out: RNP_ Hubei B IC50", "value": "5 to 10", "unit": "µM"}
    ]},
    {"smiles": "NC(=O)c1cc(-c2ccc(OCC3COC(CF)CO3)cc2)c(C(F)(F)F)[nH]c1=O", "note": "(single isomer, unassigned) [Example 342, 5-(4-((5-(fluoromethyl)-1,4-dioxan-2-yl)methoxy)phenyl)-2-oxo-6-(trifluoromethyl)-1,2-dihydropyridine-3-carboxamide]", "values": [
      {"measurement": "IC50", "setting": "read-out: RNP_ Hubei B IC50", "value": "5 to 10", "unit": "µM"}
    ]},
    {"smiles": "NC(=O)c1cc(-c2ccc(OCC3COC(CF)CO3)cc2)c(C(F)(F)F)[nH]c1=O", "note": "(single isomer, unassigned) [Example 343, 5-(4-((5-(fluoromethyl)-1,4-dioxan-2-yl)methoxy)phenyl)-2-oxo-6-(trifluoromethyl)-1,2-dihydropyridine-3-carboxamide]", "values": [
      {"measurement": "IC50", "setting": "read-out: RNP_ Hubei B IC50", "value": "5 to 10", "unit": "µM"}
    ]},
    {"smiles": "NC(=O)c1cc(-c2ccc(OCC3COC(C(F)F)CO3)cc2)c(C(F)(F)F)[nH]c1=O", "note": "(single isomer, unassigned) [Example 344, 5-(4-((5-(difluoromethyl)-1,4-dioxan-2-yl)methoxy)phenyl)-2-oxo-6-(trifluoromethyl)-1,2-dihydropyridine-3-carboxamide]", "values": [
      {"measurement": "IC50", "setting": "read-out: RNP_ Hubei B IC50", "value": "5 to 10", "unit": "µM"}
    ]},
    {"smiles": "NC(=O)c1cc(-c2ccc(OCC3COC(C(F)F)CO3)cc2)c(C(F)(F)F)[nH]c1=O", "note": "(single isomer, unassigned) [Example 345, 5-(4-((5-(difluoromethyl)-1,4-dioxan-2-yl)methoxy)phenyl)-2-oxo-6-(trifluoromethyl)-1,2-dihydropyridine-3-carboxamide]", "values": [
      {"measurement": "IC50", "setting": "read-out: RNP_ Hubei B IC50", "value": "5 to 10", "unit": "µM"}
    ]},
    {"smiles": "NC(=O)c1cc(-c2ccc(OCC3COC(C(F)F)CO3)cc2)c(C(F)(F)F)[nH]c1=O", "note": "(single isomer, unassigned) [Example 346, 5-(4-((5-(difluoromethyl)-1,4-dioxan-2-yl)methoxy)phenyl)-2-oxo-6-(trifluoromethyl)-1,2-dihydropyridine-3-carboxamide]", "values": [
      {"measurement": "IC50", "setting": "read-out: RNP_ Hubei B IC50", "value": "5 to 10", "unit": "µM"}
    ]},
    {"smiles": "NC(=O)c1cc(-c2ccc(OCC3COC(C(F)F)CO3)cc2)c(C(F)(F)F)[nH]c1=O", "note": "(single isomer, unassigned) [Example 347, 5-(4-((5-(difluoromethyl)-1,4-dioxan-2-yl)methoxy)phenyl)-2-oxo-6-(trifluoromethyl)-1,2-dihydropyridine-3-carboxamide]", "values": [
      {"measurement": "IC50", "setting": "read-out: RNP_ Hubei B IC50", "value": "5 to 10", "unit": "µM"}
    ]},
    {"smiles": "NC(=O)c1cc(-c2ccc(OCC3COCC(C(F)F)O3)cc2)c(C(F)(F)F)[nH]c1=O", "note": "(single isomer, unassigned) [Example 348, 5-(4-((6-(difluoromethyl)-1,4-dioxan-2-yl)methoxy)phenyl)-2-oxo-6-(trifluoromethyl)-1,2-dihydropyridine-3-carboxamide]", "values": [
      {"measurement": "IC50", "setting": "read-out: RNP_Hubei B", "value": "5 to 10", "unit": "µM"}
    ]},
    {"smiles": "NC(=O)c1cc(-c2ccc(OCC3COCC(C(F)F)O3)cc2)c(C(F)(F)F)[nH]c1=O", "note": "(single isomer, unassigned) [Example 349, 5-(4-((6-(difluoromethyl)-1,4-dioxan-2-yl)methoxy)phenyl)-2-oxo-6-(trifluoromethyl)-1,2-dihydropyridine-3-carboxamide]", "values": [
      {"measurement": "IC50", "setting": "read-out: RNP_ Hubei B IC50", "value": "5 to 10", "unit": "µM"}
    ]},
    {"smiles": "COC1(C2COCC(COc3ccc(-c4cc(C(N)=O)c(=O)[nH]c4C(F)(F)F)cc3)O2)CC1", "note": "(single isomer, unassigned) [Example 353, 5-(4-((6-(1-methoxycyclopropyl)-1,4-dioxan-2-yl)methoxy)phenyl)-2-oxo-6-(trifluoromethyl)-1,2-dihydropyridine-3-carboxamide]", "values": [
      {"measurement": "IC50", "setting": "read-out: RNP_ Hubei B IC50", "value": "5 to 10", "unit": "µM"}
    ]},
    {"smiles": "CC(C)(O)C1COCC(COc2ccc(-c3cc(C(N)=O)c(=O)[nH]c3C(F)(F)F)cc2)O1", "note": "(single isomer, unassigned) [Example 354, 5-(4-((6-(2-hydroxypropan-2-yl)-1,4-dioxan-2-yl)methoxy)phenyl)-2-oxo-6-(trifluoromethyl)-1,2-dihydropyridine-3-carboxamide]", "values": [
      {"measurement": "IC50", "setting": "read-out: RNP_ Hubei B IC50", "value": "5 to 10", "unit": "µM"}
    ]},
    {"smiles": "CC(C)(O)C1COCC(COc2ccc(-c3cc(C(N)=O)c(=O)[nH]c3C(F)(F)F)cc2)O1", "note": "(single isomer, unassigned) [Example 355, 5-(4-((6-(2-hydroxypropan-2-yl)-1,4-dioxan-2-yl)methoxy)phenyl)-2-oxo-6-(trifluoromethyl)-1,2-dihydropyridine-3-carboxamide]", "values": [
      {"measurement": "IC50", "setting": "read-out: RNP_ Hubei B IC50", "value": "5 to 10", "unit": "µM"}
    ]},
    {"smiles": "CC1(C2COCC(COc3ccc(-c4cc(C(N)=O)c(=O)[nH]c4C(F)(F)F)cc3)O2)CC1", "note": "(single isomer, unassigned) [Example 356, 5-(4-((6-(1-methylcyclopropyl)-1,4-dioxan-2-yl)methoxy)phenyl)-2-oxo-6-(trifluoromethyl)-1,2-dihydropyridine-3-carboxamide]", "values": [
      {"measurement": "IC50", "setting": "read-out: RNP_ Hubei B IC50", "value": "5 to 10", "unit": "µM"}
    ]},
    {"smiles": "CC1(C2COCC(COc3ccc(-c4cc(C(N)=O)c(=O)[nH]c4C(F)(F)F)cc3)O2)CC1", "note": "(single isomer, unassigned) [Example 357, 5-(4-((6-(1-methylcyclopropyl)-1,4-dioxan-2-yl)methoxy)phenyl)-2-oxo-6-(trifluoromethyl)-1,2-dihydropyridine-3-carboxamide]", "values": [
      {"measurement": "IC50", "setting": "read-out: RNP_Hubei B", "value": "5 to 10", "unit": "µM"}
    ]},
    {"smiles": "CC(F)(F)C1COCC(COc2ccc(-c3cc(C(N)=O)c(=O)[nH]c3C(F)(F)F)cc2)O1", "note": "(single isomer, unassigned) [Example 358, 5-(4-((6-(1,1-difluoroethyl)-1,4-dioxan-2-yl)methoxy)phenyl)-2-oxo-6-(trifluoromethyl)-1,2-dihydropyridine-3-carboxamide]", "values": [
      {"measurement": "IC50", "setting": "read-out: RNP_ Hubei B IC50", "value": "5 to 10", "unit": "µM"}
    ]},
    {"smiles": "CC(F)(F)C1COCC(COc2ccc(-c3cc(C(N)=O)c(=O)[nH]c3C(F)(F)F)cc2)O1", "note": "(single isomer, unassigned) [Example 359, 5-(4-((6-(1,1-difluoroethyl)-1,4-dioxan-2-yl)methoxy)phenyl)-2-oxo-6-(trifluoromethyl)-1,2-dihydropyridine-3-carboxamide]", "values": [
      {"measurement": "IC50", "setting": "read-out: RNP_ Hubei B IC50", "value": "5 to 10", "unit": "µM"}
    ]},
    {"smiles": "CCOCC1COCC(COc2ccc(-c3cc(C(N)=O)c(=O)[nH]c3C(F)(F)F)cc2)O1", "note": "(single isomer, unassigned) [Example 360, 5-(4-((6-(ethoxymethyl)-1,4-dioxan-2-yl)methoxy)phenyl)-2-oxo-6-(trifluoromethyl)-1,2-dihydropyridine-3-carboxamide]", "values": [
      {"measurement": "IC50", "setting": "read-out: RNP_Hubei B", "value": "5 to 10", "unit": "µM"}
    ]},
    {"smiles": "CCOCC1COCC(COc2ccc(-c3cc(C(N)=O)c(=O)[nH]c3C(F)(F)F)cc2)O1", "note": "(single isomer, unassigned) [Example 361, 5-(4-((6-(ethoxymethyl)-1,4-dioxan-2-yl)methoxy)phenyl)-2-oxo-6-(trifluoromethyl)-1,2-dihydropyridine-3-carboxamide]", "values": [
      {"measurement": "IC50", "setting": "read-out: RNP_ Hubei B IC50", "value": "5 to 10", "unit": "µM"}
    ]},
    {"smiles": "NC(=O)c1cc(-c2ccc(OCC3COCC(COCC4CC4)O3)cc2)c(C(F)(F)F)[nH]c1=O", "note": "(single isomer, unassigned) [Example 362, 5-(4-((6-((cyclopropylmethoxy)methyl)-1,4-dioxan-2-yl)methoxy)phenyl)-2-oxo-6-(trifluoromethyl)-1,2-dihydropyridine-3-carboxamide]", "values": [
      {"measurement": "IC50", "setting": "read-out: RNP_ Hubei B IC50", "value": "5 to 10", "unit": "µM"}
    ]},
    {"smiles": "NC(=O)c1cc(-c2ccc(OCC3COCC(COCC4CC4)O3)cc2)c(C(F)(F)F)[nH]c1=O", "note": "(single isomer, unassigned) [Example 363, 5-(4-((6-((cyclopropylmethoxy)methyl)-1,4-dioxan-2-yl)methoxy)phenyl)-2-oxo-6-(trifluoromethyl)-1,2-dihydropyridine-3-carboxamide]", "values": [
      {"measurement": "IC50", "setting": "read-out: RNP_ Hubei B IC50", "value": "5 to 10", "unit": "µM"}
    ]},
    {"smiles": "NC(=O)c1cc(-c2ccc(OCC3COCC(COCC4(F)CC4)O3)cc2)c(C(F)(F)F)[nH]c1=O", "note": "(single isomer, unassigned) [Example 364, 5-(4-((6-(((1-fluorocyclopropyl)methoxy)methyl)-1,4-dioxan-2-yl)methoxy)phenyl)-2-oxo-6-(trifluoromethyl)-1,2-dihydropyridine-3-carboxamide]", "values": [
      {"measurement": "IC50", "setting": "read-out: RNP_ Hubei B IC50", "value": "5 to 10", "unit": "µM"}
    ]},
    {"smiles": "NC(=O)c1cc(-c2ccc(OCC3COCC(COCC4(F)CC4)O3)cc2)c(C(F)(F)F)[nH]c1=O", "note": "(single isomer, unassigned) [Example 365, 5-(4-((6-(((1-fluorocyclopropyl)methoxy)methyl)-1,4-dioxan-2-yl)methoxy)phenyl)-2-oxo-6-(trifluoromethyl)-1,2-dihydropyridine-3-carboxamide]", "values": [
      {"measurement": "IC50", "setting": "read-out: RNP_ Hubei B IC50", "value": "5 to 10", "unit": "µM"}
    ]},
    {"smiles": "NC(=O)c1cc(-c2ccc(OCC3COCC(COC4CC(F)(F)C4)O3)cc2)c(C(F)(F)F)[nH]c1=O", "note": "(single isomer, unassigned) [Example 366, 5-(4-((6-((3,3-difluorocyclobutoxy)methyl)-1,4-dioxan-2-yl)methoxy)phenyl)-2-oxo-6-(trifluoromethyl)-1,2-dihydropyridine-3-carboxamide]", "values": [
      {"measurement": "IC50", "setting": "read-out: RNP_ Hubei B IC50", "value": "5 to 10", "unit": "µM"}
    ]},
    {"smiles": "NC(=O)c1cc(-c2ccc(OCC3COCC(COC4CC(F)(F)C4)O3)cc2)c(C(F)(F)F)[nH]c1=O", "note": "(single isomer, unassigned) [Example 367, 5-(4-((6-((3,3-difluorocyclobutoxy)methyl)-1,4-dioxan-2-yl)methoxy)phenyl)-2-oxo-6-(trifluoromethyl)-1,2-dihydropyridine-3-carboxamide]", "values": [
      {"measurement": "IC50", "setting": "read-out: RNP_ Hubei B IC50", "value": "5 to 10", "unit": "µM"}
    ]},
    {"smiles": "NC(=O)c1cc(-c2ccc(OCC3COCC(COCC(F)F)O3)cc2)c(C(F)(F)F)[nH]c1=O", "note": "(single isomer, unassigned) [Example 368, 5-(4-((6-((2,2-difluoroethoxy)methyl)-1,4-dioxan-2-yl)methoxy)phenyl)-2-oxo-6-(trifluoromethyl)-1,2-dihydropyridine-3-carboxamide]", "values": [
      {"measurement": "IC50", "setting": "read-out: RNP_ Hubei B IC50", "value": "5 to 10", "unit": "µM"}
    ]}
  ]
}
